From article PMC8015227, “Understanding the Metabolism of Proteolysis Targeting Chimeras (PROTACs): The Next Step toward Pharmaceutical Applications” (Journal of Medicinal Chemistry, 2020) come the findings set out here.

The nature of series [1]: Metabolic stability in cryopreserved human hepatocytes. The format is in vitro ADME. The conditions noted are these: human.
Protocol: (§1) Cryopreserved human hepatocytes (pooled suspension hepatocytes, Gibco) were thawed placing in a 37 °C shaking water bath according to the manufacturer’s specifications and resuspended in Williams E medium (WEM) to have 1 × 10^6 cells/mL. Samples with the test compound at 1 μM were incubated at 37 °C, and aliquots of 50 μL were collected at 0, 10, 30, 60, 120, and 240 min. The incubations were quenched 1:3 with ice-cold acetonitrile (containing 1 μM labetalol as the internal standard). Samples were then centrifuged at 12000 rpm for 5 min at 4 °C. The supernatant was concentrated by evaporation under a nitrogen stream and reconstituted with DMSO. Blank was prepared similarly but in the absence of the investigated compounds.
(§2) A Thermo Q-exactive mass spectrometer (Thermo Fisher Scientific, Waltham, MA) was used. The LC system, governed by Chromeleon X-press software, consists of a Binary pump, a thermostated autosampler, and a column compartment, all Dionex Ultimate 3000 series modules (Thermo Fisher Scientific, Waltham, MA). A volume of 2 μL was injected for each sample. Chromatographic separation of analytes was conducted in reverse-phase chromatography. In brief, a Luna Omega 1.6 μm Polar (C18, 2.1 mm × 150 mm) was used, and the mobile phases consisted of water (A) and acetonitrile (B), both containing formic acid at 0.1%. The LC flow was set at 0.400 mL/min in a 12 min gradient elution as follows: 99.5:0.5 (A/B) to 5:95 (A/B) over 10 min, 5:95 (A/B) for 2 min, and then reversion back to 99.5:0.5 (A/B) over 2.5 min. The column was operating at a constant temperature of 40 °C.
Series [2] relates to cryopreserved human hepatocytes. The description is as above. The format is in vitro ADME. The conditions noted are these: for substrate left: cryopreserved human hepatocytes, end of incubation (240 min).
Protocol: as §1, §2
[3] abbreviates: cryopreserved human hepatocytes (pooled, suspension), Table 1, incubation in cryopreserved human hepatocytes, 1 μM, up to 240 min, read-out: t1/2.
The mark [4] stands for this setting: cryopreserved human hepatocytes (pooled, suspension), Table S1, PROTACs, cryopreserved human hepatocytes, read-out: t1/2.
Setting [5] is: cryopreserved human hepatocytes (pooled, suspension), supplement CSV, human hepatocytes, read-out: HLH t1/2.
Where [6] appears, read: Table 1, biotransformations observed in cryopreserved human hepatocytes.
Where [7] appears, read: cryopreserved human hepatocytes (pooled, suspension), Figures 3-5, cryopreserved human hepatocytes, read-out: half-life (t1/2).
Where [8] appears, read: supplement CSV, in brackets, final time point 240 min.
Where [9] appears, read: cryopreserved human hepatocytes (pooled, suspension), Table 2, cryopreserved human hepatocytes, read-out: t1/2.
The mark [10] stands for this setting: Table 2, biotransformations observed in cryopreserved human hepatocytes.
[11] abbreviates: cryopreserved human hepatocytes (pooled, suspension), Table S2, free ligands, cryopreserved human hepatocytes, read-out: t1/2.

Like-named read-outs stand apart in the source and are kept apart here.

As to `Cc1sc2c(c1C)C(c1ccc(Cl)cc1)=N[C@@H](CC(=O)NCCCCCCCCNc1cccc3c1C(=O)N(C1CCC(=O)NC1=O)C3=O)c1nnc(C)n1-2` (stereo partly drawn) [Compound 4, 2-((S)-4-(4-Chlorophenyl)-2,3,9-trimethyl-6H-thieno[3,2-f][1,2,4]triazolo[4,3-a][1,4]diazepin-6-yl)-N-(8-((2-(2,6-dioxopiperidin-3-yl)-1,3-dioxoisoindolin-4-yl)amino)octyl)acetamide], the half-life at 1 µM in series [1] (setting [3]), in series [1] (setting [4]) and in series [1] (setting [5]) was 55.1 min each time. Besides, the “Reaction (soft spots)” value in series [2] (setting [6]) is reported as “a. N-dealkylation (x2) b. Aliphatic-hydroxylation c. Dehydrogenation*”.

In the case of `Cc1ncsc1-c1ccc([C@H](C)NC(=O)[C@@H]2C[C@@H](O)CN2C(=O)[C@@H](NC(=O)CCN2CCN(C(=O)C[C@@H]3N=C(c4ccc(Cl)cc4)c4c(sc(C)c4C)-n4c(C)nnc43)CC2)C(C)(C)C)cc1` [Compound 11, (2S,4R)-1-((S)-2-(3-(4-(2-((S)-4-(4-Chlorophenyl)-2,3,9-trimethyl-6H-thieno[3,2-f][1,2,4]triazolo[4,3-a][1,4]diazepin-6-yl)acetyl)piperazin-1-yl)propanamido)-3,3-dimethylbutanoyl)-4-hydroxy-N-((S)-1-(4-(4-methylthiazol-5-yl)phenyl)ethyl)pyrrolidine-2-carboxamide], the half-life at 1 µM in series [1] (setting [7]), in series [1] (setting [4]) and in series [1] (setting [5]) was greater than 240 min throughout. In series [2] (setting [8]), the “HLH percentage of substrate left at the final time point of analysis” value (from here on “HLH percentage of substrate left”) amounted to 70.0%.

Regarding `Cc1ncsc1-c1ccc([C@H](C)NC(=O)[C@@H]2C[C@@H](O)CN2C(=O)[C@@H](NC(=O)CCCCn2cc(CN3CCN(C(=O)c4cc(Cc5n[nH]c(=O)c6ccccc56)ccc4F)CC3)nn2)C(C)(C)C)cc1` [Compound 24, (2S,4R)-1-((S)-2-(5-(4-((4-(2-Fluoro-5-((4-oxo-3,4-dihydrophthalazin-1-yl)methyl)benzoyl)piperazin-1-yl)methyl)-1H-1,2,3-triazol-1-yl)pentanamido)-3,3-dimethylbutanoyl)-4-hydroxy-N-((S)-1-(4-(4-methylthiazol-5-yl)phenyl)ethyl)pyrrolidine-2-carboxamide], the half-life at 1 µM in series [1] (setting [7]), in series [1] (setting [4]) and in series [1] (setting [5]) was greater than 240 min each time. The substrate left entry in series [2] is “about 84%”. Besides, in series [2] (setting [8]), the “HLH percentage of substrate left” value is recorded as 84.3%.

For the compound `Cc1ncsc1-c1ccc([C@H](C)NC(=O)[C@@H]2C[C@@H](O)CN2C(=O)[C@@H](NC(=O)CCCCn2cc(CCCC(=O)N3CCN(C(=O)c4cc(Cc5n[nH]c(=O)c6ccccc56)ccc4F)CC3)nn2)C(C)(C)C)cc1` [Compound 25, (2S,4R)-1-((S)-2-(5-(4-(4-(4-(2-Fluoro-5-((4-oxo-3,4-dihydrophthalazin-1-yl)methyl)benzoyl)piperazin-1-yl)-4-oxobutyl)-1H-1,2,3-triazol-1-yl)pentanamido)-3,3-dimethylbutanoyl)-4-hydroxy-N-((S)-1-(4-(4-methylthiazol-5-yl)phenyl)ethyl)pyrrolidine-2-carboxamide], the half-life at 1 µM in series [1] (setting [7]), in series [1] (setting [4]) and in series [1] (setting [5]) was greater than 240 min each time. In series [2], the substrate left entry is listed as “about 84%”. For the same compound, the “HLH percentage of substrate left” value in series [2] (setting [8]) was found to be 84.7%.

As for `O=C(COc1cccc2c1C(=O)N(C1CCC(=O)NC1=O)C2=O)NCCCCCCCCNC(=O)COc1c(-c2csc(N3CCOCC3)n2)ccc(F)c1F` (centres unmarked) [Compound 26, 2-(2,3-Difluoro-6-(2-morpholinothiazol-4-yl)phenoxy)-N-(8-(2-((2-(2,6-dioxopiperidin-3-yl)-1,3-dioxoisoindolin-4-yl)oxy)acetamido)octyl)acetamide], the half-life at 1 µM in series [1] (setting [7]), in series [1] (setting [9]), in series [1] (setting [4]) and in series [1] (setting [5]) was 8.4 min each time. Also, the “Reaction (soft spots)” value in series [2] (setting [10]) was “a. Amide hydrolysis b. N-dealkylation c. O-dealkylation”.

Regarding `O=C(COc1cccc2c1C(=O)N(C1CCC(=O)NC1=O)C2=O)NCCOCCOCCNC(=O)COc1c(-c2csc(N3CCOCC3)n2)ccc(F)c1F` (centres unmarked) [Compound 27, 2-(2,3-Difluoro-6-(2-morpholinothiazol-4-yl)phenoxy)-N-(2-(2-(2-(2-((2-(2,6-dioxopiperidin-3-yl)-1,3-dioxoisoindolin-4-yl)oxy)acetamido)ethoxy)ethoxy)ethyl)acetamide], the half-life at 1 µM in series [1] (setting [9]), in series [1] (setting [4]) and in series [1] (setting [5]) was 39.4 min each time. Besides, in series [2] (setting [10]), the “Reaction (soft spots)” value is on record as “a. Amide hydrolysis b. O-dealkylation (x3) c. Aliphatic-hydroxylation”.

Regarding `O=C(COc1cccc2c1C(=O)N(C1CCC(=O)NC1=O)C2=O)NCCOCCOCCOCCNC(=O)COc1c(-c2csc(N3CCOCC3)n2)ccc(F)c1F` (centres unmarked) [Compound 28, 2-(2,3-Difluoro-6-(2-morpholinothiazol-4-yl)phenoxy)-N-(1-((2-(2,6-dioxopiperidin-3-yl)-1,3-dioxoisoindolin-4-yl)oxy)-2-oxo-6,9,12-trioxa-3-azatetradecan-14-yl)acetamide], the half-life at 1 µM in series [1] (setting [4]) and in series [1] (setting [5]) was 66.4 min each time.

`O=C(COc1c(-c2csc(N3CCOCC3)n2)ccc(F)c1F)NCCCCCCCCNc1cccc2c1C(=O)N(C1CCC(=O)NC1=O)C2=O` (centres unmarked) [Compound 30, 2-(2,3-Difluoro-6-(2-morpholinothiazol-4-yl)phenoxy)-N-(8-((2-(2,6-dioxopiperidin-3-yl)-1,3-dioxoisoindolin-4-yl)amino)octyl)acetamide]: the half-life at 1 µM in series [1] (setting [9]), in series [1] (setting [4]) and in series [1] (setting [5]) was 47.6 min each time. Also, in series [2] (setting [10]), the “Reaction (soft spots)” value was “a. Amide hydrolysis b. N-dealkylation c. O-dealkylation d. Aliphatic-hydroxylation”.

Consider `O=C1CCC(N2C(=O)c3cccc(NCCOCCOCCOc4c(-c5csc(N6CCOCC6)n5)ccc(F)c4F)c3C2=O)C(=O)N1` (centres unmarked) [Compound 32, 4-((2-(2-(2-(2,3-Difluoro-6-(2-morpholinothiazol-4-yl)phenoxy)ethoxy)ethoxy)ethyl)amino)-2-(2,6-dioxopiperidin-3-yl)isoindoline-1,3-dione], for which the half-life at 1 µM in series [1] (setting [4]) and in series [1] (setting [5]) was 45.3 min each time.

Take `Cc1ncsc1-c1ccc([C@H](C)NC(=O)[C@@H]2C[C@@H](O)CN2C(=O)[C@@H](NC(=O)COCCCNC(=O)COc2c(-c3csc(N4CCOCC4)n3)ccc(F)c2F)C(C)(C)C)cc1` [Compound 36]: the half-life at 1 µM in series [1] (setting [4]) and in series [1] (setting [5]) was 25.2 min throughout.

For `Cc1ncsc1-c1ccc([C@H](C)NC(=O)[C@@H]2C[C@@H](O)CN2C(=O)[C@@H](NC(=O)COCCOCCNC(=O)COc2c(-c3csc(N4CCOCC4)n3)ccc(F)c2F)C(C)(C)C)cc1` [Compound 37], the half-life at 1 µM in series [1] (setting [3]), in series [1] (setting [4]) and in series [1] (setting [5]) was 37.6 min in each case. Besides, the “Reaction (soft spots)” value in series [2] (setting [6]) is listed as “a. O-dealkylation (x5) b. Amide Hydrolysis (x2) c. Glucuronidation d. Dehydrogenation”.

As for `Cc1ncsc1-c1ccc([C@H](C)NC(=O)[C@@H]2C[C@@H](O)CN2C(=O)[C@@H](NC(=O)CCCCCCCOc2c(-c3csc(N4CCOCC4)n3)ccc(F)c2F)C(C)(C)C)cc1` [Compound 38], the half-life at 1 µM in series [1] (setting [4]) and in series [1] (setting [5]) was 67.6 min throughout.

As for `Cc1ncsc1-c1ccc([C@H](C)NC(=O)[C@@H]2C[C@@H](O)CN2C(=O)[C@@H](NC(=O)CCCCn2cc(COc3c(-c4csc(N5CCOCC5)n4)ccc(F)c3F)nn2)C(C)(C)C)cc1` [Compound 39], the half-life at 1 µM in series [1] (setting [7]), in series [1] (setting [4]) and in series [1] (setting [5]) was 40.1 min each time.

Regarding `Nc1cccc2c1C(=O)N(C1CCC(=O)NC1=O)C2=O` (centres unmarked) [Compound 41, pomalidomide, reference compound], the half-life at 1 µM in series [1] (setting [3]), in series [1] (setting [11]) and in series [1] (setting [5]) was 140 min in each case. Further, the “Reaction (soft spots)” value in series [2] (setting [6]) is reported as “a. Amide Hydrolysis (x4)”.

Turning to `Cc1ncsc1-c1ccc([C@H](C)NC(=O)[C@@H]2C[C@@H](O)CN2C(=O)[C@@H](N)C(C)(C)C)cc1` [Compound 42, reference compound], the half-life at 1 µM in series [1] (setting [3]), in series [1] (setting [11]) and in series [1] (setting [5]) was 92 min throughout. The “Reaction (soft spots)” value in series [2] (setting [6]) is listed as “a. N-dealkylation b. Aromatic hydroxylation c. Aliphatic-hydroxylation d. Aliphatic-carbonylation”.

In the case of `Cc1sc2c(c1C)C(c1ccc(Cl)cc1)=N[C@@H](CC(=O)O)c1nnc(C)n1-2` [Compound 43, (+)-JQ1, reference compound], the half-life at 1 µM is greater than 240 min in series [1] (hepatocytes, HLH t1/2 (min)) and greater than 240 min in series [1] (hepatocytes, t1/2 (min)). The “Reaction (soft spots)” value in series [2] is reported as “a. Aliphatic-hydroxylation”. In addition, in series [2] (human, 240 min, 1 µM), the “HLH percentage of substrate left” value is reported as 100.0%.

In the case of `O=C(O)c1ccc2c(c1)nc(Nc1cccc(Cl)c1)c1ccncc12` [Compound 44, CX4945, reference compound], the half-life at 1 µM in series [1] (setting [11]) and in series [1] (setting [5]) was 99.7 min in each case.

On to `Cl.O=C(c1cc(Cc2n[nH]c(=O)c3ccccc23)ccc1F)N1CCNCC1` [Compound 45, reference compound], for which the half-life at 1 µM in series [1] (setting [11]) and in series [1] (setting [5]) was greater than 240 min in each case. Moreover, the “HLH percentage of substrate left” value in series [2] (setting [8]) is reported as 77.7%.

On to `Oc1c(-c2csc(N3CCOCC3)n2)ccc(F)c1F` [Compound 46, reference compound], for which the half-life at 1 µM in series [1] (setting [7]) was less than 20 min; in series [1] (setting [3]), 18.3 min; in series [1] (setting [11]), 18.3 min; in series [1] (setting [5]) it was 18.3 min. For the same compound, in series [2] (setting [6]), the “Reaction (soft spots)” value is reported as “a. O-dealkylation b.Glucuronidation c. Aliphatic hydroxylation”.
